ChEMBL document CHEMBL5370540, “Discovery of pyrimidine-5-carboxamide derivatives as novel salt-inducible kinases (SIKs) inhibitors for inflammatory bowel disease (IBD) treatment” (Eur J Med Chem, 2023)
The source made the active and inactive calls. The rule behind the calls is not given here.

Legend:
[1] = Metabolic stability in human liver microsomes assessed as half life; assay type: ADME, Microsome
[2] = target: T1, Serine/threonine-protein kinase SIK1 (Homo sapiens, UniProt P57059); test: Inhibition of SIK1 (unknown origin) assessed as residual activity at 0.1 uM relative to control
[3] = target: T2, Serine/threonine-protein kinase SIK2 (Homo sapiens, UniProt Q9H0K1); test: Inhibition of SIK2 (unknown origin) assessed as residual activity at 0.1 uM relative to control
Target sequence in this assay (Q9H0K1 whole entry, looked up): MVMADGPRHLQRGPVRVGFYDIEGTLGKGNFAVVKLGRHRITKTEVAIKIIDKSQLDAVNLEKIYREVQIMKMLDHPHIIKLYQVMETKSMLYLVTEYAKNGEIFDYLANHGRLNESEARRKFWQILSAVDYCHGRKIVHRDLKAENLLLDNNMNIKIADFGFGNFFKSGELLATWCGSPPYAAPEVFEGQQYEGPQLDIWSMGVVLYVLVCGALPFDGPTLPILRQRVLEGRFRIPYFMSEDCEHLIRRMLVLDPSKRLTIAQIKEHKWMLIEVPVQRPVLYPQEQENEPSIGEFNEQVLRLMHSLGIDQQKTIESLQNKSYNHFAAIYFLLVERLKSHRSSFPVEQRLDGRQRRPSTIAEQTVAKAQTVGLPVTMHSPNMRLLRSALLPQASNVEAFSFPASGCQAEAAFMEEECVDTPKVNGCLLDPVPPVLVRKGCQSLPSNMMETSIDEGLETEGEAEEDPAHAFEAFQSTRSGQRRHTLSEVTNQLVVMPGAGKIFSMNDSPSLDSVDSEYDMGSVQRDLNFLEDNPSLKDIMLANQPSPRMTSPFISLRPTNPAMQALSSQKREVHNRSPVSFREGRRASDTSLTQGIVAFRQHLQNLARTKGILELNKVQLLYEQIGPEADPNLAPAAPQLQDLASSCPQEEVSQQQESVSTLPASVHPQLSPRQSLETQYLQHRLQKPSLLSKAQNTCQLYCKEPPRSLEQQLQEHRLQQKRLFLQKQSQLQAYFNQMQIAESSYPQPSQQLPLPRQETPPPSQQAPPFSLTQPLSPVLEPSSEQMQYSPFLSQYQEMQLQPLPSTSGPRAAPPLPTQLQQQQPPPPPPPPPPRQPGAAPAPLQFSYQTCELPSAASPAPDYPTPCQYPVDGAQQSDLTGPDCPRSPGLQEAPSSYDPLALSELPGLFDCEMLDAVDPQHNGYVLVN

[4] = target: T3, Serine/threonine-protein kinase SIK3 (Homo sapiens, UniProt Q9Y2K2); test: Inhibition of SIK3 (unknown origin) assessed as residual activity at 0.1 uM relative to control
Target sequence in this assay (Q9Y2K2 whole entry, looked up): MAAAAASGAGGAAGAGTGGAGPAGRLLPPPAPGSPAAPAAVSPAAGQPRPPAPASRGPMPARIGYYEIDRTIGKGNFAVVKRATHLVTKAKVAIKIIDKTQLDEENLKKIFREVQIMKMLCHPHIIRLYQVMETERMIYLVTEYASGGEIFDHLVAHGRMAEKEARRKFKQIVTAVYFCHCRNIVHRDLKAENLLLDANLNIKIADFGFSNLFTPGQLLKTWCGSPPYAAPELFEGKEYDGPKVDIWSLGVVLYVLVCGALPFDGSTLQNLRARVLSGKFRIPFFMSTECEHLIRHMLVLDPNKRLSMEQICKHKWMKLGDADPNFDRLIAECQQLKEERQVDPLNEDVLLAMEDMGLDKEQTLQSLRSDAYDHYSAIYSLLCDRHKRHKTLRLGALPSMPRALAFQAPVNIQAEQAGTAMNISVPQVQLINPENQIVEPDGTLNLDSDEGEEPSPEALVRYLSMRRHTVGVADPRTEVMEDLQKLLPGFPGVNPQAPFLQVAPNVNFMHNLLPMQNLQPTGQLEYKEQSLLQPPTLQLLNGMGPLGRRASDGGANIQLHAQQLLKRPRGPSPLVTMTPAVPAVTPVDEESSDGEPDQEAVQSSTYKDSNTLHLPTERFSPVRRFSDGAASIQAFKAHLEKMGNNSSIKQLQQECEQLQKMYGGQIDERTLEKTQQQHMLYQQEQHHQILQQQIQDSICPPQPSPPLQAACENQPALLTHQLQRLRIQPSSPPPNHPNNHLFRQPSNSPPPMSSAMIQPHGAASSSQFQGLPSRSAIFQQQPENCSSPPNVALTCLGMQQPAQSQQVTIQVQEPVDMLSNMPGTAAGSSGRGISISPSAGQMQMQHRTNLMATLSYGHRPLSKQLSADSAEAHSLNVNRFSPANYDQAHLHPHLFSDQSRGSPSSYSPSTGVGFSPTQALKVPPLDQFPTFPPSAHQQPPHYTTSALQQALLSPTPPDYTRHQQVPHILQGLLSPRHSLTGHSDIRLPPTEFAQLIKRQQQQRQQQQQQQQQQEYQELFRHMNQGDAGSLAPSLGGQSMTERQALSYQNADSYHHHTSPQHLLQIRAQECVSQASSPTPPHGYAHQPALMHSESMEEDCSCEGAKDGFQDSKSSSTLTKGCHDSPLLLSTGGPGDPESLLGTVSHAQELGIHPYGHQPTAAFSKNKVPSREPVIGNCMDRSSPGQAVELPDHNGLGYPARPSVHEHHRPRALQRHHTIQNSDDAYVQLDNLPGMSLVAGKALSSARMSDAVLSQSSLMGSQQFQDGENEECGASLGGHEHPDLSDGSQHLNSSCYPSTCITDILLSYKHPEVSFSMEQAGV

[5] = Metabolic stability in mouse liver microsomes assessed as half life; assay type: ADME, Microsome
[6] = AUC (0 to t) in Sprague-Dawley rat at 5 mg/kg, iv measured upto 24 hrs by LC/MS/MS analysis; assay type: ADME, organism-based; design: time < 24 hrs, dose 5 mg/kg, route iv; conditions: in vivo
[7] = Half life in Sprague-Dawley rat at 5 mg/kg, iv measured upto 24 hrs by LC/MS/MS analysis; assay type: ADME, organism-based; conditions: in vivo
[8] = Tmax in Sprague-Dawley rat at 5 mg/kg, iv measured upto 24 hrs by LC/MS/MS analysis; assay type: ADME, organism-based; conditions: in vivo
[9] = Clearance in Sprague-Dawley rat at 5 mg/kg, iv measured upto 24 hrs by LC/MS/MS analysis; assay type: ADME, organism-based; conditions: in vivo
[10] = Cmax in Sprague-Dawley rat at 5 mg/kg, iv measured upto 24 hrs by LC/MS/MS analysis; assay type: ADME, organism-based; design: dose 5 mg/kg, time < 24 hrs, route iv; conditions: in vivo
[11] = AUC (0 to t) in Sprague-Dawley rat at 5 mg/kg, po measured upto 24 hrs by LC/MS/MS analysis; assay type: ADME, organism-based; design: time < 24 hrs, dose 5 mg/kg, route po; conditions: in vivo
[12] = Half life in Sprague-Dawley rat at 5 mg/kg, po measured upto 24 hrs by LC/MS/MS analysis; assay type: ADME, organism-based; conditions: in vivo
[13] = Tmax in Sprague-Dawley rat at 5 mg/kg, po measured upto 24 hrs by LC/MS/MS analysis; assay type: ADME, organism-based; conditions: in vivo
[14] = Clearance in Sprague-Dawley rat at 5 mg/kg, po measured upto 24 hrs by LC/MS/MS analysis; assay type: ADME, organism-based; conditions: in vivo
[15] = Cmax in Sprague-Dawley rat at 5 mg/kg, po measured upto 24 hrs by LC/MS/MS analysis; assay type: ADME, organism-based; design: time < 24 hrs, dose 5 mg/kg, route po; conditions: in vivo
[16] = Oral bioavailability in Sprague-Dawley rat at 5 mg/kg measured upto 24 hrs by LC/MS/MS analysis; assay type: ADME, organism-based; conditions: in vivo
[17] = Protein binding in human plasma at 10 uM measured for 8 hrs by dialysis method; assay type: ADME, cell-free; conditions: read-out: PPB (converted)
[18] = test system: BMDM; test: Cytotoxicity against C57BL/6J mouse BMDM cells assessed as cell viability upto 500 nM preincubated for 1 hr followed by LPS stimulation measured after 2 to 4 hrs by CCK8 assay; assay type: toxicity, cell-based; conditions: 0.5 µM, time 3-5 hrs
[19] = test system: BMDM; test: Anti-inflammatory activity against C57BL/6J mouse BMDM cells assessed as increase in IL-10 level at 500 nM preincubated for 1 hr followed by LPS stimulation measured after 2 to 8 hrs by ELISA method; assay type: functional, cell-based; conditions: time 3-9 hrs
[20] = test system: BMDM; test: Anti-inflammatory activity against C57BL/6J mouse BMDM cells assessed as decrease in IL-12 level at 500 nM preincubated for 1 hr followed by LPS stimulation measured after 4 to 8 hrs by ELISA method; assay type: functional, cell-based; conditions: time 5-9 hrs
[21] = test system: BMDM; test: Anti-inflammatory activity against C57BL/6J mouse BMDM cells assessed as decrease in IL-12 level at 500 nM preincubated for 1 hr followed by LPS stimulation measured after 8 hrs by ELISA method; assay type: functional, cell-based; conditions: time 9.0 hrs
[22] = test system: BMDM; test: Anti-inflammatory activity against C57BL/6J mouse BMDM cells assessed as decrease in IL-12 level upto 500 nM preincubated for 1 hr followed by LPS stimulation measured after 8 hrs by ELISA method; assay type: functional, cell-based; conditions: time 9.0 hrs
[23] = Protein binding in mouse plasma; assay type: ADME, cell-free; conditions: read-out: PPB
[24] = target: T1, Serine/threonine-protein kinase SIK1; test: Inhibition of SIK1 (unknown origin)
[25] = target: T2, Serine/threonine-protein kinase SIK2; test: Inhibition of SIK2 (unknown origin)
Target sequence in this assay (Q9H0K1 whole entry): as the sequence (Q9H0K1 whole entry, looked up) above

[26] = target: T3, Serine/threonine-protein kinase SIK3; test: Inhibition of SIK3 (unknown origin)
Target sequence in this assay (Q9Y2K2 whole entry): as the sequence (Q9Y2K2 whole entry, looked up) above

[27] = Selectivity ratio of IC50 for SIK1 (unknown origin) to IC50 for SIK2 (unknown origin)
[28] = Selectivity ratio of IC50 for SIK3 (unknown origin) to IC50 for SIK2 (unknown origin)

T1 sequence (P57059 whole entry): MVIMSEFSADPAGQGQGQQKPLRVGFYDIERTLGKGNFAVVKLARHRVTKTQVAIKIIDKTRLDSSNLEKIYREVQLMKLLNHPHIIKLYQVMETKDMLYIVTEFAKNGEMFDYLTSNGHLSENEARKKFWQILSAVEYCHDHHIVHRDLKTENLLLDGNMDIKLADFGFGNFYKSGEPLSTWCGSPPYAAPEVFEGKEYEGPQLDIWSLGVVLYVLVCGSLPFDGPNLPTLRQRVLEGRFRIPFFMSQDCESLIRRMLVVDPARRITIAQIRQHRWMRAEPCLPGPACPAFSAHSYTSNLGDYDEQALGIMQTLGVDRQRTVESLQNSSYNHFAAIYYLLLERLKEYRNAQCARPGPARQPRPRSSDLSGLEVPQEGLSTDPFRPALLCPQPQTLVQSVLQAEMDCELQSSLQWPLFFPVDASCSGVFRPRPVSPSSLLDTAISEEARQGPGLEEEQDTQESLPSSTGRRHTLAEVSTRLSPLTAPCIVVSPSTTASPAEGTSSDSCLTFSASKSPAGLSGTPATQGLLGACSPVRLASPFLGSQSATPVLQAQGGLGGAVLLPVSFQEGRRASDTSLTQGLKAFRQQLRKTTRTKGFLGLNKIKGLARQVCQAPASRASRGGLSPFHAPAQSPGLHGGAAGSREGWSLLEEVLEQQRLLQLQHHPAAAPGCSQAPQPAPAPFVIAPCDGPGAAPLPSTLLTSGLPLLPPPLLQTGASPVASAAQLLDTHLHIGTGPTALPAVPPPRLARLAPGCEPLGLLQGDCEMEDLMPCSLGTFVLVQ

CN1CCN(c2ccc(Nc3ncc(C(=O)Nc4ccccc4F)c(NC4CCC4)n3)cc2)CC1
half-life [1]: 45.6 min
Activity [2]: 124%
Activity [3]: 22%
Activity [4]: 100%

Cc1cccc(Cl)c1NC(=O)c1cnc(Nc2ccc(N3CCN(C)CC3)cc2)nc1NC1CCC1
half-life [1]: 43.3 min
Activity [2]: 31%
Activity [3]: 20%
Activity [4]: 68%

Cc1cccc(C)c1NC(=O)c1cnc(Nc2ccc(N3CCN(C)CC3)cc2)nc1NC1CC1
half-life [1]: 40.8 min

Cc1cccc(C)c1NC(=O)c1cnc(Nc2ccc(N3CCN(C)CC3)c(F)c2)nc1NC1CC1
half-life [1]: 60.3 min

Cc1cccc(C)c1NC(=O)c1cnc(Nc2ccc(N3CCN(C)CC3)cc2)nc1NC1CCCCC1
half-life [1]: 37.3 min

Cc1cccc(C)c1NC(=O)c1cnc(Nc2ccc(N3CCN(C)CC3)cc2)nc1NC1CCC1
half-life [1]: 44.7 min

Cc1cccc(Br)c1NC(=O)c1cnc(Nc2ccc(N3CCN(C)CC3)cc2)nc1NC1CCC1
half-life [1]: 21.5 min
Activity [3]: 52%
Activity [4]: 66%

COc1ccc(N(C(=O)Nc2c(C)cccc2C)c2cc(Nc3ccc(N4CCN(C)CC4)cc3)ncn2)c(OC)c1
half-life [5]: 11 min
half-life [1]: 14.4 min
AUC(0-t) at 24 h [6]: 1110 ng·h/mL
half-life [7]: 210 min
Tmax [8]: 6 min
clearance [9]: 76.7 mL/min/kg
Cmax [10]: 1290 ng/mL
AUC(0-t) at 24 h [11]: 522 ng·h/mL
half-life [12]: 150 min
Tmax [13]: 78 min
CL/F [14]: 223 mL/min/kg
Cmax [15]: 149 ng/mL
bioavailability [16]: 47.2%
fraction unbound at 8 h, 10 µM [17]: < 0.01
Activity [18]: Non-Toxic
Activity [19]: Active
Activity [20]: inactive
Activity [21]: Active
Activity [22]: Active

Cc1cccc(C)c1NC(=O)c1cnc(Nc2ccc(CN3CCOCC3)cc2)nc1NC1CCC1
half-life [1]: 6.5 min

Cc1cccc(C)c1NC(=O)c1cnc(Nc2ccc(N3CCN(C)CC3)c(Cl)c2)nc1NC1CCC1
half-life [1]: 56.6 min

CNc1nc(Nc2ccc(N3CCN(C)CC3)cc2)ncc1C(=O)Nc1c(C)cccc1C
half-life [1]: 17.5 min

Cc1cccc(C)c1NC(=O)c1cnc(Nc2ccc(N3CCN(C)CC3)cc2F)nc1NC1CCC1
half-life [1]: > 120 min

Cc1cccc(C)c1NC(=O)c1cnc(Nc2ccc(N3CCNCC3)cc2)nc1NC1CCC1
half-life [1]: 33 min

Cc1cccc(F)c1NC(=O)c1cnc(Nc2ccc(N3CCN(C)CC3)cc2)nc1NC1CCC1
half-life [1]: 69.3 min
Activity [3]: 1%
Activity [4]: 9%

CN1CCN(c2ccc(Nc3ncc(C(=O)Nc4c(F)cccc4F)c(NC4CCC4)n3)cc2)CC1
half-life [1]: 49.5 min
Activity [2]: 12%
Activity [3]: 10%
Activity [4]: 93%

COc1ccc(N2C(=O)N(c3c(C)cccc3Cl)Cc3cnc(Nc4ccc(C5CCN(C)CC5)cc4OC)nc32)nc1
half-life [5]: > 120 min
fraction unbound [23]: > 0.06

COc1cc(Nc2ncc(C(=O)Nc3c(C)cccc3C)c(NC3CCC3)n2)ccc1N1CCN(C)CC1
half-life [1]: 48.6 min

Cc1cccc(F)c1NC(=O)c1cnc(Nc2ccc(N3CCN(C)CC3)c(F)c2)nc1NC1CC1
IC50 [24]: 16 nM
IC50 [25]: 6 nM
IC50 [26]: 51 nM
half-life [1]: 73.7 min
Ratio IC50 [27]: 2.7
Ratio IC50 [28]: 8.5
AUC(0-t) at 24 h [6]: 1850 ng·h/mL
half-life [7]: 366 min
Tmax [8]: 6 min
clearance [9]: 51.7 mL/min/kg
Cmax [10]: 1540 ng/mL
AUC(0-t) at 24 h [11]: 432 ng·h/mL
half-life [12]: 234 min
Tmax [13]: 222 min
CL/F [14]: 315 mL/min/kg
Cmax [15]: 52.2 ng/mL
bioavailability [16]: 23.4%

COc1cc(N2CCN(C)CC2)ccc1Nc1ncc(C(=O)Nc2c(C)cccc2C)c(NC2CCC2)n1
half-life [1]: 44.1 min

COc1ccc(Nc2nc(Nc3ccc(N4CCN(C)CC4)cc3)ncc2C(=O)Nc2c(C)cccc2C)c(OC)c1
half-life [1]: > 120 min

COc1cc(Nc2ncc(C(=O)Nc3c(C)cccc3C)c(NC3CC3)n2)ccc1N1CCN(C)CC1
half-life [1]: 52.1 min

Cc1cccc(C)c1NC(=O)c1cnc(Nc2ccc(N3CCN(C)CC3)cc2)nc1NC1CCCC1
half-life [1]: 32.4 min

COc1cccc(C)c1NC(=O)c1cnc(Nc2ccc(N3CCN(C)CC3)cc2)nc1NC1CCC1
half-life [1]: 31.9 min
Activity [3]: 107%
Activity [4]: 93%

Cc1cccc(C)c1NC(=O)c1cnc(Nc2ccc(N3CCN(C)CC3)c(F)c2)nc1NC1CCC1
half-life [1]: 62.4 min

Cc1cccc(C)c1NC(=O)c1cnc(Nc2ccc(N3CCN(C)CC3)cc2)nc1NC(C)C
half-life [1]: 24.3 min

COc1ccc(N2C(=O)N(c3c(C)cccc3Cl)Cc3cnc(Nc4ccc(N5CCN(C)CC5)cc4)nc32)nc1
half-life [5]: 27 min
